{
  "source": "patent US20110262359A1",
  "about": "“COMPOSITIONS COMPRISING ENZYME-CLEAVABLE PRODRUGS OF ACTIVE AGENTS AND INHIBITORS THEREOF” (priority 2010, published 2011)",
  "molecules": {"B1": {"name": "ovalbumin: Albumin from chicken egg white (Catalog No. A7641, Sigma-Aldrich), used as a non-trypsin inhibitor protein control (protein, UniProt P01012 2-386, looked up)", "Ovalbumin": "GSIGAASMEFCFDVFKELKVHHANENIFYCPIAIMSALAMVYLGAKDSTRTQINKVVRFDKLPGFGDSIEAQCGTSVNVHSSLRDILNQITKPNDVYSFSLASRLYAEERYPILPEYLQCVKELYRGGLEPINFQTAADQARELINSWVESQTNGIIRNVLQPSSVDSQTAMVLVNAIVFKGLWEKAFKDEDTQAMPFRVTEQESKPVQMMYQIGLFRVASMASEKMKILELPFASGTMSMLVLLPDEVSGLEQLESIINFEKLTEWTSSNVMEERKIKVYLPRMKMEEKYNLTSVLMAMGITDVFSSSANLSGISSAESLKISQAVHAAHAEINEAGREVVGSAEAGVDAASVSEEFRADHPFLFCIKHIATNAVLFFGRCVSP"}},
  "key": {"[1]": {"test": "Oral administration of Compound PC-3 and Compound 101 trypsin inhibitor to rats", "assay_type": "in vivo"}, "[2]": {"test": "Oral administration of Compound PC-4 and Compound 101 trypsin inhibitor to rats", "assay_type": "in vivo", "details": "rat PO; PC-4 20 mg/kg with Compound 101 10 mg/kg"}, "[3]": {"test": "Oral administration of Compound PC-1 and SBTI trypsin inhibitor to rats (hydromorphone in blood)", "details": "PC-1 20 mg/kg"}, "[4]": {"test": "Oral administration of Compound PC-1 and SBTI in the presence of ovalbumin to rats (hydromorphone in plasma)", "assay_type": "in vivo", "details": "for Maximum concentration (Cmax) of hydromorphone in rat plasma: PC-1 20 mg/kg"}, "[5]": {"test": "Oral administration of Compound PC-1 and BBSI inhibitor to rats", "assay_type": "in vivo", "details": "PC-1 20 mg/kg"}, "[6]": {"test": "Oral administration of Compound PC-2 and SBTI trypsin inhibitor to rats", "assay_type": "in vivo", "details": "PC-2 20 mg/kg"}, "[7]": {"test": "Oral administration of Compound PC-3 and SBTI trypsin inhibitor to rats", "assay_type": "in vivo", "details": "PC-3 20 mg/kg"}, "[8]": {"details": "PC-3 20 mg/kg, Compound 101 10 mg/kg"}},
  "data": [
    {"molecule": "CCOC(=O)N1CCN(C(=O)[C@H](CCCNC(=N)N)NS(=O)(=O)c2ccc3ccccc3c2)CC1", "note": "[Compound 101, (S)-ethyl 4-(5-guanidino-2-(naphthalene-2-sulfonamido)pentanoyl)piperazine-1-carboxylate]", "values": [
      {"measurement": "effect of Compound 101 on release of hydromorphone from Compound PC-3", "setting": "[1]; rat PO, PC-3 20 mg/kg with Compound 101 10 mg/kg", "result": "attenuates Compound PC-3's ability to release hydromorphone, both with respect to suppressing Cmax and delaying Tmax"},
      {"measurement": "effect of Compound 101 on release of hydromorphone from Compound PC-4", "setting": "[2]", "result": "attenuates Compound PC-4's ability to release hydromorphone, both with respect to suppressing Cmax and delaying Tmax"}
    ]},
    {"molecule": "CC(=O)NC(CCCNC(=N)N)C(=O)NCCN(C)C(=O)Oc1ccc2c3c1OC1C(=O)CCC4C(C2)N(C)CCC314", "note": "(centres unmarked) [Compound PC-1, hydromorphone 3-(N-methyl-N-(2-N′-acetylarginylamino)) ethylcarbamate]", "values": [
      {"measurement": "Maximum concentration (Cmax) of hydromorphone in rat blood", "setting": "[3]; SBTI 0 mg/kg", "result": "16.5 ± 5.3", "unit": "ng/mL"},
      {"measurement": "Maximum concentration (Cmax) of hydromorphone in rat blood", "setting": "[3]; SBTI 10 mg/kg", "result": "8.9 ± 1.8", "unit": "ng/mL"},
      {"measurement": "Maximum concentration (Cmax) of hydromorphone in rat blood", "setting": "[3]; SBTI 100 mg/kg", "result": "6.0 ± 4.0", "unit": "ng/mL"},
      {"measurement": "Maximum concentration (Cmax) of hydromorphone in rat blood", "setting": "[3]; SBTI 500 mg/kg, lower limit of quantitation 5 ng/mL", "result": "<5", "unit": "ng/mL"},
      {"measurement": "Maximum concentration (Cmax) of hydromorphone in rat blood", "setting": "[3]; SBTI 1000 mg/kg, lower limit of quantitation 5 ng/mL", "result": "<5", "unit": "ng/mL"},
      {"measurement": "Maximum concentration (Cmax) of hydromorphone in rat plasma", "setting": "[4]; OVA 0 mg/kg, SBTI 0 mg/kg", "result": "13.3 ± 3.7", "unit": "ng/mL"},
      {"measurement": "Maximum concentration (Cmax) of hydromorphone in rat plasma", "setting": "[4]; OVA 20 mg/kg, SBTI 0 mg/kg", "result": "11.0 ± 5.4", "unit": "ng/mL"},
      {"measurement": "Maximum concentration (Cmax) of hydromorphone in rat plasma", "setting": "[4]; OVA 100 mg/kg, SBTI 0 mg/kg", "result": "9.7 ± 3.1", "unit": "ng/mL"},
      {"measurement": "Maximum concentration (Cmax) of hydromorphone in rat plasma", "setting": "[4]; OVA 500 mg/kg, SBTI 0 mg/kg", "result": "11.6 ± 2.5", "unit": "ng/mL"},
      {"measurement": "Maximum concentration (Cmax) of hydromorphone in rat plasma", "setting": "[4]; OVA 500 mg/kg, SBTI 500 mg/kg", "result": "1.9 ± 0.9", "unit": "ng/mL"},
      {"measurement": "Maximum concentration (Cmax) of hydromorphone in rat plasma", "setting": "[4]; OVA 1000 mg/kg, SBTI 0 mg/kg", "result": "10.3 ± 3.5", "unit": "ng/mL"},
      {"measurement": "plasma Tmax of hydromorphone", "setting": "[4]; rat PO, PC-1 20 mg/kg alone", "result": 2.3, "unit": "h"},
      {"measurement": "plasma Tmax of hydromorphone", "setting": "[4]; rat PO, PC-1 20 mg/kg with 500 mg/kg OVA and 500 mg/kg SBTI", "result": 8.0, "unit": "h"},
      {"measurement": "Maximum concentration (Cmax) of hydromorphone in rat blood", "setting": "[5]; BBSI 0 mg/kg, n = 4", "result": "16.5 ± 5.3", "unit": "ng/mL"},
      {"measurement": "Maximum concentration (Cmax) of hydromorphone in rat blood", "setting": "[5]; BBSI 100 mg/kg, n = 3 (3 of the 4 rats)", "result": "10.6 ± 5.9", "unit": "ng/mL"},
      {"measurement": "Maximum concentration (Cmax) of hydromorphone in rat blood", "setting": "[5]; BBSI 100 mg/kg, n = 4", "result": "18.7 ± 17.0", "unit": "ng/mL"},
      {"measurement": "Cmax of hydromorphone of the rat not included in n = 3 analysis", "setting": "[5]; BBSI 100 mg/kg, one rat", "result": 43, "unit": "ng/mL"},
      {"measurement": "range of Cmax of hydromorphone of the other rats", "setting": "[5]; rat PO, BBSI 100 mg/kg, the 3 rats of the n = 3 analysis", "result": "6.8 to 17", "unit": "ng/mL"}
    ]},
    {"molecule": "CN(CCNC(=O)[C@@H](N)CCCNC(=N)N)C(=O)Oc1ccc2c3c1OC1C(=O)CCC4C(C2)N(C)CCC314", "note": "(stereo partly drawn) [Compound PC-2, [2-((S)-2-amino-5-guanidino-pentanoylamino)-ethyl]-methyl-carbamic acid hydromorphyl ester]", "values": [
      {"measurement": "Cmax of hydromorphone in rat plasma", "setting": "[6]; SBTI 0 mg/kg", "result": "14.2 ± 2.6", "unit": "ng/mL"},
      {"measurement": "Cmax of hydromorphone in rat plasma", "setting": "[6]; SBTI 500 mg/kg", "result": "7.3 ± 3.5", "unit": "ng/mL"}
    ]},
    {"molecule": "CC(=O)N[C@@H](CCCCN)C(=O)NCCN(C)C(=O)Oc1ccc2c3c1OC1C(=O)CCC4C(C2)N(C)CCC314", "note": "(stereo partly drawn) [Compound PC-3, (S)-2-Acetylamino-6-amino-hexanoic acid (2-methylamino-ethyl)-amide hydromorphone ester]", "values": [
      {"measurement": "Cmax of hydromorphone in rat plasma", "setting": "[7]; SBTI 500 mg/kg", "result": "2.3 ± 1.7", "unit": "ng/mL"},
      {"measurement": "Tmax of hydromorphone in rat plasma", "setting": "[7]; SBTI 500 mg/kg", "result": 7.3, "unit": "h"},
      {"measurement": "Cmax of hydromorphone in rat plasma", "setting": "[7]; no inhibitor", "result": "9.0 ± 3.1", "unit": "ng/mL"},
      {"measurement": "Tmax of hydromorphone in rat plasma", "setting": "[7]; no inhibitor", "result": 2.3, "unit": "h"},
      {"measurement": "Cmax of HM in rat plasma", "setting": "[1]; [8]", "result": "3.8 ± 2.9", "unit": "ng/mL"},
      {"measurement": "Tmax of HM in rat plasma", "setting": "[1]; [8]", "result": 3.5, "unit": "h"}
    ]},
    {"molecule": "B1", "values": [
      {"measurement": "effect of ovalbumin on release of hydromorphone from Compound PC-1", "setting": "[4]; rat PO, PC-1 20 mg/kg with OVA 20 to 1000 mg/kg", "result": "does not significantly affect Compound PC-1's ability to release hydromorphone"}
    ]}
  ]
}
